Measured values as given in patent US20050020658A1, “Selective cyclooxygenase-2 inhibitor patch” (priority 2002, published 2005).

Key:
[1] = Solubility of celecoxib and valdecoxib in various solvents at room temperature; type: physicochemical
Protocol: In order to identify candidate solvent systems for patch formulations of selective COX-2 inhibitory drugs of low water solubility, various solvents were tested for solubility of celecoxib and valdecoxib at room temperature.

[2] = Skin flux of 10 mM drug solutions in NMP, Franz diffusion cell; type: in vitro ADME, rat; conditions: 10 mM solution in NMP, 1 ml; receptor 10% NMP in phosphate buffer saline pH 7.4; 32° C.; 3 replicates
Protocol: (§1) A 15 mm disk of the membrane was placed on a diffusion cell filled with the receptor fluid and the diffusion cell was maintained at 32° C. A 10 mM solution of each drug in NMP was placed in an amount of 1 ml on the membrane. […] The test was conducted in 3 replicates.

[3] = In vitro skin permeation of 1% drug solutions, Franz diffusion cell; type: in vitro ADME, rat
Protocol: A 15 mm disk of the membrane was placed on a diffusion cell filled with the receptor fluid and the diffusion cell was maintained at 32° C. A 10 mM solution of each drug in NMP was placed in an amount of 1 ml on the membrane. The amount of drug that had permeated through the membrane by various times in an 8-10 hour period was determined by HPLC analysis of the receptor fluid. The test was conducted in 3 replicates. […] The test solutions in this example comprised celecoxib or valdecoxib at a concentration of 1% weight/volume in various solvents. The test was conducted in 3 replicates. […] The test solutions in this example comprised celecoxib or valdecoxib at a concentration of 1% weight/volume in NMP, with or without oleic acid at 1% weight/volume. The test was conducted in 3 replicates.

[4] = In vitro skin permeation of poultice, tape and gel formulations, Franz diffusion cell; type: in vitro ADME, rat
Protocol: as §1, with “replicates. […] The test solutions in this example comprised celecoxib or valdecoxib at a concentration of 1% weight/volume in various solvents. The test was conducted in 3 replicates. A 25 mm disk was punched from each poultice and placed on a Franz diffusion cell. […]” for “replicates.”

[5] = Solubility of valdecoxib in NMP/PEG 400 mixtures at room temperature; type: physicochemical
Protocol: Solubility was determined by preparing a saturated solution of valdecoxib in the test solvent system at 80° C. and cooling this solution for 24 hours at room temperature.

[6] = in 1,3-butylene glycol, room temperature
[7] = in crotamiton, room temperature
[8] = in diethyl sebacate, room temperature
[9] = in dipropylene glycol, room temperature
[10] = in propylene glycol, room temperature
[11] = 0.5% poultice (crotamiton/PEG 400 solvents), 25 mm disk

solubility [1, 6] [mg/g] | solubility ([1]; in DIA, room temperature) [mg/g] | solubility ([1]; in NMP, room temperature) [mg/g] | solubility ([1]; in PEG 400, room temperature) [mg/g] | solubility [1, 7] [mg/g] | solubility [1, 8] [mg/g] | solubility [1, 9] [mg/g] | solubility [1, 10] [mg/g] | skin flux [2] [nmol/cm^2 · h] | skin flux ([3]; 1% weight/volume in NMP) [μg/cm^2 · h] | skin flux ([3]; 1% weight/volume in PEG 400) | skin flux ([3]; 1% weight/volume in crotamiton) | skin flux [4, 11] [μg/cm^2 · h] | skin flux ([4]; 1.0% gel (70% ethanol), 200 mg) [μg/cm^2 · h] | SMILES | other results
20 | 94 | 219 | 340 | 306 | 77 | 44 | 28 | 1.6 | 0.15 | not detectable | not detectable | 0.008 | 0.039 | Cc1ccc(-c2cc(C(F)(F)F)nn2-c2ccc(S(N)(=O)=O)cc2)cc1 [celecoxib, 4-[5-(4-methylphenyl)-3-(trifluoromethyl)-1H-pyrazol-1-yl]benzenesulfonamide] | –
– | – | – | – | – | – | – | – | 33.4 | – | – | – | – | – | CC(C(=O)O)c1cccc(C(=O)c2ccccc2)c1 (centres unmarked) [ketoprofen] | –
19 | 20 | 190 | 198 | 165 | 10 | 67 | 30 | 3.3 | 0.51 | not detectable | 0.02 μg/cm^2 · h | 0.009 | 0.115 | Cc1onc(-c2ccccc2)c1-c1ccc(S(N)(=O)=O)cc1 [valdecoxib, 4-[5-methyl-3-phenylisoxazol-4-yl]benzenesulfonamide] | solubility ([1]; in glycerol, room temperature): 1 mg/g; time at which amount of drug permeated reached a plateau ([3]; 1% in NMP, FIG. 4): about 4 hours; solubility ([5]; NMP:PEG 400 ratio 0:5, saturated at 80° C., cooled 24 hours at room temperature): 169 mg/g; solubility ([5]; NMP:PEG 400 ratio 5:0): 190 mg/g; solubility ([5]; NMP:PEG 400 ratio 5:1): 149 mg/g; solubility ([5]; NMP:PEG 400 ratio 5:2): 126 mg/g; solubility ([5]; NMP:PEG 400 ratio 5:3): 100 mg/g; solubility ([5]; NMP:PEG 400 ratio 5:4): 73 mg/g; solubility ([5]; NMP:PEG 400 ratio 5:5): 71 mg/g
